These results are taken from US12485187B2, “Method for improving retroviral transduction and gene editing in hematopoietic stem cells using clyclosporin H and UM171” (Ospedale San Raffaele S.R.L, priority 2017, dated 2025).

One data set deals with human HSPCs. The data set is described as follows: Colony-forming cell assay. The class given is cell-based. The method, then: Colony-forming cell assays were performed by plating 8×10^2 human HSPCs transduced in the presence of the different compounds in a methylcellulose-based medium (Methocult GF4434; Stem Cell Technologies). Fifteen days later colonies were scored by light microscopy for colony numbers and morphology. CFU-E and BFU-E were scored as erythroid colonies, while CFU-G, CFU-M and CFU-GM and CFU-GEMM were scored as myeloid colonies. Moreover, single colonies were plucked for molecular analysis.

Another data set deals with human CD34+ HSPCs. The settings on record: for effect on LV transduction of combining the compound with CsH: hCB- and mPB-derived HSPC, LV MOI 1 or 10.
For another data set, the system named is CB-derived CD34+ HSPCs. The settings on record: Wang et al. 2014; cited from earlier work.

Turning to `CO[C@H]1C[C@@H]2CC[C@@H](C)[C@@](O)(O2)C(=O)C(=O)N2CCCC[C@H]2C(=O)O[C@H]([C@H](C)C[C@@H]2CC[C@@H](O)[C@H](OC)C2)CC(=O)[C@H](C)/C=C(\C)[C@@H](O)[C@@H](OC)C(=O)[C@H](C)C[C@H](C)/C=C/C=C/C=C/1C` [rapamycin, Rapamycin, reference compound], in the data set on human HSPCs (BM-derived CD34+ cells transduced with IDUA or ARSA LV), the colony-forming capacity result was “no alterations in colony-forming capacity were observed”. Also, the VCN in vitro result in the data set on human CD34+ HSPCs (BM-derived CD34+ cells, single hit IDUA/ARSA-LV vs two-hit standard (MOI 100)) is recorded as “comparable to the two-hit gold standard”. For the same compound, in the data set with human CD34+ HSPCs (BM-derived CD34+ cells, single hit vs one-hit control without drugs), the “transduction efficiency of clinical-grade IDUA and ARSA-LV” value is given as “able to increase transduction efficiency”. Moreover, the “effect on LV transduction of combining the compound with CsH” value with human CD34+ HSPCs is recorded as “additive”. Also, in the data set on CB-derived CD34+ HSPCs, the “LV integration site profile in human HSPCs” value is on record as “not to impact the LV integration site profile in human HSPCs”.
Regarding `CCCCC[C@H](O)/C=C/[C@H]1[C@H](O)CC(=O)[C@@H]1C/C=C\CCCC(=O)O` [prostaglandin E2, Prostaglandin E2, reference compound], in the data set on human HSPCs (mPB-CD34+ cells, IDUA-LV MOI 50, vs control), the colony-forming capacity result is given as “No differences in colony-forming capacity”. Also, the “effect on LV transduction of combining the compound with CsH” value with human CD34+ HSPCs was “additive”.
